In brackets after ≈: the same amount, converted by molar mass.
Experiments:
[1] = system: spindle assembly around sperm chromosomes; experiment: spindle assembly in metaphase-arrested Xenopus egg extracts; parameters: species or system Xenopus laevis; conditions: 100 μM importazole
Description: In order to determine whether importazole also disrupts mitosis, importazole was first tested in metaphase-arrested Xenopus egg extracts, which rely heavily on a RanGTP gradient for spindle assembly around sperm chromosomes. […] The effect was similar to that of adding a truncated importin-β (amino acids 71-876), a version that no longer binds to RanGTP and therefore sequesters its cargoes. […] Thus, importazole caused dramatic effects on spindle assembly consistent with the known role of the importin-β/RanGTP pathway in the Xenopus egg extract system, and is not a general microtubule inhibitor.
Xenopus laevis egg extracts were prepared as described by Hannak et al. (2006) Nat. Protoc. 1:2305-2314. For in vitro spindle assembly, Xenopus laevis sperm DNA was added to egg extracts supplemented with rhodamine-labeled tubulin. Asters were formed by addition of 5% DMSO. DNA was stained with Hoechst dye. The formation of microtubule-based structures was assessed using epifluorescence microscopy after a 30-minute room temperature incubation. In vitro microtubule polymerization and pelleting assays were performed by incubating 25 μM bovine tubulin, 1 mM GTP, and 5% DMSO in BRB80 buffer (80 mM PIPES, 1 mM MgCl2, 1 mM EGTA, pH 6.8) at 37° C. for 30 minutes. Polymerized microtubules were pelleted through a sucrose cushion, resuspended, and analyzed by SDS PAGE.

[2] = system: importin-β-mediated nuclear import; experiment: ionomycin-induced NFAT-GFP nuclear import in HEK 293 cells; type: cell-based, human
Description: To investigate whether importazole is cell permeable and active in living human cells, a cell line was generated that stably expresses a GFP-tagged version of the transcription factor NFAT (nuclear factor of activated T cells), which shuttles between the nucleus and the cytoplasm in a calcium-regulated manner and is imported by importin-α/β and exported by CRM1. At steady state NFAT is predominantly cytoplasmic. An increase in cytoplasmic calcium induced by the ionophore ionomycin leads to the accumulation of NFAT in the nucleus (FIG. 4A). NFAT import can be reverted upon ionophore withdrawal, (FIG. 5A) providing an inducible system ideal for testing the effects of importazole on importin-β-mediated nuclear import and CRM1-mediated nuclear export, both of which are dependent upon RanGTP.
Cells were pretreated with 40 μM importazole for 1 hour followed by 30 minutes of ionomycin treatment in the continued presence of importazole. […] Thus, it is possible to use importazole in drug-washout experiments to study the Ran/importin-β pathway in cells.
A GFP-NFAT expression plasmid (pKW520) was generated by inserting a BamH I/Hind III-cleaved NFATC1 cDNA fragment into pEGFP-C1 (Clontech) digested with Bgl II and Hind III. The construct was stably transfected into HEK 293 cells and a single clone expressing moderate levels of NFAT-GFP was selected and maintained in Opti-mem media (Gibco) plus 4% fetal bovine serum, 1% penicillin/streptomycin, and 200 μg/ml G418. HeLa cells were grown and maintained according to standard protocols.
For all import and export experiments, HEK 293 cells stably expressing NFAT-GFP were grown on glass coverslips to approximately 50% confluency prior to drug treatment. In all cases, importazole was used at 40 μM and leptomycin B was used at 10 ng/ml. For controls, DMSO was used at a concentration of 0.4%. Ionomycin was added at 1.25 μM. Importazole and leptomycin B treatments were all for 1 hour. In all experiments cells were fixed with 4% formaldehyde prior to fluorescence microscopy. DNA was visualized with 1 μg/ml Hoechst dye.

[3] = solubility in water; type: physicochemical
[4] = system: mitotic importin-β cargo release; experiment: Rango-3 FRET sensor FLIM in mitotic HeLa cells; type: cell-based, human; conditions: DMSO controls 0.12+/−0.4 ns
Description: A key feature of importazole, a cell-permeable importin-β/RanGTP inhibitor, is its ability to dissect novel roles of this pathway in dividing human cells, which also provide a system to analyze mitotic gradients of released cargos using FRET probes. If importazole disrupts the interaction of importin-β with RanGTP, then the chromatin-localized FRET gradient of the cargo probe Rango should be reduced, since it undergoes FRET when released from importin-β in HeLa cells. […] Thus, importazole impairs mitotic importin-β cargo release in HeLa cells.
The Rango-3 FRET sensor is an improved version of Rango and was created by replacing Cerulean-EYFP donor-acceptor pair in Rango with EGFP as a donor and non-fluorescent acceptor sREACh which was modified by the introduction of mild dimerization mutations. […] The emission was collected from a custom side port, filtered through a 525 nm bandpass filter (ET525/50 Chroma) and detected by a HPM-100-40 module (Becker & Hickl) containing a hybrid Hamamatsu R10467-40 GaAsP photomultiplier. Two to three days before the experiment, HeLa cells were transfected with a pSG8 plasmid containing the Rango-3 open reading frame (pK135) to induce sensor expression. […] Fluorescence lifetime images were produced and analyzed using SPCI software (Becker & Hickl).

[5] = system: nuclear import mediated by transportin; experiment: nuclear import of M9-YFP in permeabilized HeLa cells; type: cell-based, human; conditions: permeabilized HeLa cells plus Xenopus egg extract
[6] = target: T1, CRM1 (Homo sapiens, UniProt O14980); experiment: fluorescent thermal shift assay (Sypro Orange), CRM1; type: binding; conditions: 2 μM protein, 50 μM importazole
T1 construct: made in house; host or cells: SG13 cells (E. coli)
T1 sequence (O14980 whole entry, species assumed): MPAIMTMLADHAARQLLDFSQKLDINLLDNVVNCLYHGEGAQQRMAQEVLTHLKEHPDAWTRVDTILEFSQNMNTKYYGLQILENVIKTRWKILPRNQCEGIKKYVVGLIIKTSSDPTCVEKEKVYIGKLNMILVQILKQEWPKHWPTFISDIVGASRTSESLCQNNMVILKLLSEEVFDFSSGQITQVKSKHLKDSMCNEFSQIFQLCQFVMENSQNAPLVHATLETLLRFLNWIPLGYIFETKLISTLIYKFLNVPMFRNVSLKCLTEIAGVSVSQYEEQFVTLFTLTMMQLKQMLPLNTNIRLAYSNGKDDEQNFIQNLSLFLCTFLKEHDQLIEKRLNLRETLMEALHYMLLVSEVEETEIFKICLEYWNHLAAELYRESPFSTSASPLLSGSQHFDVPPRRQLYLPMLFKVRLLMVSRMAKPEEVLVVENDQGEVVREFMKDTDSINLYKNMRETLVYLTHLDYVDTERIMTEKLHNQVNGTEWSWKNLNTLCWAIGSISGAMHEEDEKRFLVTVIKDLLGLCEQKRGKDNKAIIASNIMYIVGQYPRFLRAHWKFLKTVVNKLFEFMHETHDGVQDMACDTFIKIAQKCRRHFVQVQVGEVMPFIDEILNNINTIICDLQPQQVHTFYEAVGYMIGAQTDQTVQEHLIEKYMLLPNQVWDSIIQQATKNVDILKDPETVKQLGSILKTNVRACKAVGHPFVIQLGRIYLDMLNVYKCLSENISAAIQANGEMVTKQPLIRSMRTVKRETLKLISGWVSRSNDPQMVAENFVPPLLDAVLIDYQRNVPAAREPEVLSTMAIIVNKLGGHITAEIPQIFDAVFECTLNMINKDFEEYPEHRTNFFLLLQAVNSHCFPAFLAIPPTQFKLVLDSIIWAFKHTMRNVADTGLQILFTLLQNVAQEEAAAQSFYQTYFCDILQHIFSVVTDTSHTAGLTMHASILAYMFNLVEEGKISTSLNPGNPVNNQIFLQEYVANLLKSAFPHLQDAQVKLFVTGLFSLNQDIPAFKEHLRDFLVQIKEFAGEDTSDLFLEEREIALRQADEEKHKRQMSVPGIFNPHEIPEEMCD
Protocol: Experiments were performed using Applied Biosystems StepOnePlus™ Real-Time polymerase chain reaction (RT-PCR) System. Protein stocks were diluted in PBS and added 70% v/v to a Microamp® Fast 96-well Reaction Plate and maintained on ice. Compounds (importazole and control compound 3016) were then added at 30% v/v in 3% DMSO. Freshly prepared 100× water based-dilution of Sypro® Orange Protein Gel Stain was then added at 1% v/v to reach a final reaction volume of 20 μl. Samples were mixed by gentle pipetting. After sealing the plates with Microamp™ Optical Adhesive Film, the plate was subjected to a heating cycle composed of a 10 sec prewarming step at 25° C. and a gradient between 25° C. and 95° C. with a 0.3° C. ramp. Data was analyzed using the StepOnePlus™ Software v2.1.

CC(Nc1nc(N2CCCC2)nc2ccccc12)c1ccccc1 (centres unmarked) [importazole, (1-phenyl-ethyl)-(2-pyrrolidin-1-yl-quinazolin-4-yl)-amine]
sperm nuclei at which normal bipolar microtubule structures were prevented from forming [1]: 80%
nuclear accumulation of NFAT-GFP after ionomycin addition ([2]; HEK 293, 40 μM, 1 hour pretreatment then 30 minutes ionomycin): virtually no import of NFAT-GFP
IC50 ([2]; Homo sapiens, HEK293, HEK 293 cells stably expressing NFAT-GFP, read-out: IC50 for inhibition of NFAT-GFP import): ~15 µM
reversibility of NFAT-GFP import inhibition ([2]; washout, 1 hour recovery before ionomycin): reversible upon importazole washout
solubility [3]: ~100 µM (≈ 31.8 µg/mL)
difference in fluorescence lifetime of Rango-3 donor GFP between chromosomes and distal cytoplasm [4]: 0.07+/−0.03 ns
transportin-mediated nuclear import (M9-YFP) [5]: did not block nuclear import
effect on melting curve of CRM1 [6]: did not significantly affect the melting curves

From patent US20130225611A1, “Compositions and Methods for Reducing Cancer Cell Proliferation and Modulating Importin-Beta Function” (THE REGENTS OF THE UNIVERSITY OF CALIFORNIA, priority 2011, published 2013)
